From patent US9539298B2, “Lissencephaly therapeutic agent” (OSAKA CITY UNIVERSITY, priority 2010, dated 2017)

How the values were obtained:
[1] = tested on: fibroblasts established from LIS1 heterozygous mice (MEF); test: Change in intracellular protein localization by SNJ-1945 (immunocytochemistry); assay type: cell-based, mouse; settings: 200 μM, 2 hours
Description: A LIS1 gene hetero-deficient mice group and a wild-type mice (12.5- to 14.5-day-old embryos) group each consisting of five mice were prepared, and fibroblasts (MEF; mouse embryonic fibroblast) were established from each group in the same manner as above (more specifically, fibroblasts were established by grouping the same gene type). Using the cells, immunocytochemistry was performed as follows. The influence of SNJ-1945 on intracellular protein localization in each cell was analyzed. First, a slide glass (24×24 mm; Matsunami Glass Ind., Ltd.) washed beforehand with 0.1 N hydrochloric acid was placed on a 6-well plate (Nunc), and MEF cells were seeded in an amount of 1.0×10^5 cells per well in a D-MEM culture solution (containing 10% fetal bovine blood serum; Wako Pure Chemical Ind. Ltd.). Subsequently, the 6-well plate was cultured overnight at 37° C. under 5% CO2, and SNJ-1945 was added thereto so that the final concentration became 200 μM. The incubation was performed for another 2 hours under the same conditions.
As a control experiment, the same experiment was performed by adding 1% dimethylsulfoxide (DMSO). After washing with phosphate buffer (PBS), the MEF cells were immobilized using 4% paraformaldehyde (Wako, 162-16065) (at room temperature, for 15 minutes). […] After incubation, the cells were washed well with PBS, and embedded using glycerol (Merck) for fluorescence microscope observation. […]
After careful observation using a confocal laser microscope (TCS-SP5, Leica), the intracellular locations of the individual factors in MEF cells under varying conditions are classified into “cells clustered around the nucleus” and “cells distributed to the entire cytoplasm.” For each cell group, 10 samples, each of which consists of 10 arbitrarily extracted cells, i.e., 100 cells in total for each group, were evaluated, and the average value±standard deviation was calculated. […]

[2] = tested on: nerve cells from cerebellums of FVB mice; test: Analysis of toxicity of calpain inhibitors on cultured cerebellar nerve cells; assay type: cell-based, mouse
Description: The cerebellums were removed from 4- to 5-day-old FVB mice (15 mice). In a Ca^2+-free Hank's Balanced Salt Solution (CF-HBSS; Ca^2+, Mg^2+-free Hank's Balanced Salt Solution (CMF-HBBS, Sigma) containing 5 mM magnesium chloride (MgCl2, Wako) and 4 mg/mL glucose (Wako)), the meninges were removed and cut into pieces. After the cerebellum fragments were washed with CF-HBSS, the fragments were allowed to stand for 20 minutes at 37° C. in CF-HBSS containing 0.025% trypsin (Invitrogen) and 6.25 μg/mL deoxyribonuclease (DNase, Sigma), and then centrifuged. The resulting tissues were washed with 10% HS/BME (DNase Medium; obtained by adding 5 mM MgCl2 and 25 μg/mL DNase to Basal Medium Eagle (BME, Invitrogen) containing 10% Horse Serum (HS, Invitrogen)) and centrifuged. DNase medium was added to the cells, and the cells were transferred to a 24-well plate (Nunc). The cells were kept still for 30 minutes at 37′C under an atmospheric environment of 5% CO2, thereby suspending the cells. The cell suspension was isolated, and then washed with 10% HS/BME. The suspension was transferred again to a 24-well plate to be cultured for 16 hours at 37° C. under an atmospheric environment of 5% CO2. The cells were collected to BME containing 1% Bovine Serum Albumin (BSA, Sigma) and 0.5% N2 supplement (Invitrogen), and the cell suspension was seeded on a 35 mm glass base dish (Iwaki) coated beforehand with poly-L-lysine (Sigma) and laminin (Sigma) in an amount of […]. The cells were cultured for 8 hours at 37° C. under an atmospheric environment of 5% CO2. The cultured nerve cells were used as test nerve cells.
A culture solution (10% HS/BME) containing SNJ-1945, E64d, or ALLN was prepared in the following manner. SNJ-1945 dissolved in dimethyl sulfoxide (Sigma, D-5879) was mixed with a culture solution so that the final concentration became 200 μM, and was kept still for an hour at 37° C., thereby completely dissolving SNJ-1945 in the culture medium. ALLN and E64d were also dissolved in culture media in the same manner, except that ALLN and E64d were added to the culture media to final concentrations of 50 μM and 100 μM, respectively. The culture media in which the components were dissolved were added to the test nerve cells prepared above in an amount of 2 ml/well, and the cells were cultured for 16 hours. As a control, the same culture was conducted using a culture medium containing the same amount of dimethyl sulfoxide (Sigma, D-5879). After culture, the cells were observed using an inverted microscope (TCS FP5S, Leica). A 20× objective lens was used. Images were taken using dedicated software (LAS AF, Leica) under the condition of 512×512 pixels.

COCCOCCOC(=O)N[C@@H](CC(C)C)C(=O)N[C@@H](Cc1ccccc1)C(=O)C(=O)NC1CC1 [compound 17, ((1S)-1-((((1S)-1-Benzyl-2,3-dioxo-3-(cyclopropylamino)propyl)amino)carbonyl)-3-methylbutyl)carbamic acid 5-methoxy-3-oxapentyl ester]
LIS1 amount around the centrosome (intracellular localization) ([1]; FIG. 2): the LIS1 amount can be recovered
cytoplasmatic dynein amount / localization ([1]; FIG. 3): the cytoplasmatic dynein amount can also be recovered
β-COP distribution ([1]; FIG. 4): the distribution is normalized
neurite elongation and cell migration (cytotoxicity) ([2]; 200 μM, 16 hours, FIG. 24): normal neurite elongation and cell migration were also observed, and no significant difference from the control was observed
cell toxicity ([2]; compared with other calpain inhibitors): did not show any cell toxicity even in a high concentration
